Data as given in publication PMC8325119, “A Novel Class of Functionalized Synthetic Fluoroquinolones with Dual Antiproliferative - Antimicrobial Capacities” (Asian Pacific Journal of Cancer Prevention : APJCP, 2021).
Values after ≈ are worked out from the molar mass of the structure shown. Values joined by “and” are separate entries in the source; they are usually repeats but may differ in a detail not shown here. Equal values may be shown once. Read-outs that look alike come from different tables or passages of the source.

Assays:
[1] = system: Staphylococcus aureus (S. aureus) ATCC 6538; test: Quantitative antimicrobial assessment (MIC) against S. aureus; assay type: cell-based
K562 cell line = test: SRB cytotoxicity assay, K562 leukaemia cell line; details: Homo sapiens, K562, 72 h
Procedure: (§1) All reagents and chemicals of analytical grade were obtained from Sigma (Dorset, UK); unless stated otherwise. All chemicals, reagents and solvents (of analytical grade) were used directly without further purification. MCF7 cell line ATCC® HTB-22™, T47D cell line ATCC® HTB-133™, K562 cell line ATCC® CCL-243™, Panc1 cell line ATCC® CRL-1469™. A375.S2 cell line ATCC® CRL-1872™, A549 cell line ATCC® CCL-185™, HELA cell line ATCC® CCL-2™ were cultured in Dulbecco’s modified eagle’s medium (DMEM). (DMEM) containing foetal bovine serum (FBS) (Bio Whittaker, Verviers, Belgium), 4-(2-hydroxyethyl)-1-piperazine ethane sulfonic acid (HEPES) Buffer, L-glutamine, gentamicin, penicillin, and streptomycin sulphate (Sigma, St. Luis, MO, USA), trypsin, trypan blue, Ciprofloxacin HCl from Aarti drugs Ltd/India, was a kind gift from Pharma International Company- Amman; Fluconazole from Neopharma, United Arab Emirates, a kind gift from Pharmaceutical Research Unit, Amman; Trypon soya agar (TSA), trypon soya broth (TSB), sabouraud dextrose agar (SDA) were obtained from Liofilchem (Italy) or Oxoid LTD (Basingstoke, England), they were reconstituted and sterilized by autoclave at 121 °C for 15 min.
(§2) The cytotoxicity measurements were determined using Sulforhodamine B (SRB) colorimetric assay for cytotoxicity screening. The mechanism of reduction of cell viability was adopted as described previously (Arabiyat et al., 2016a,b; 2017; Alabsi et al., 2018; Jumah, 2018; AlShahrabi et al., 2020). Human periodontal ligament fibroblasts (PDL) are a primary normal cell culture for verification of selective cytotoxicity. […] Selectivity ratio as indicative factor of the safety of compounds was calculated by dividing IC50 of tested compound on normal fibroblasts by IC50 of the same compound on specific pathological cell line (Hoffman et al., 2011).

HELA cell line = test: SRB cytotoxicity assay, HELA cervical cancer cell line; details: Homo sapiens, HeLa, 72 h
Procedure: as §1, §2

PANC 1 cell line = test: SRB cytotoxicity assay, PANC 1 pancreatic cancer cell line; details: Homo sapiens, PANC-1, 72 h, read-out: Cytotoxicity IC50 value, PANC 1 cell line
Procedure: as §1, §2

T47D cell line = test: cells; details: Homo sapiens, T47D, 72 h, read-out: Cytotoxicity IC50 value, T47D cell line
Procedure: as §1, §2

A375.S2 cell line = test: SRB cytotoxicity assay, A375.S2 melanoma cell line; details: Homo sapiens, A375-S2, 72 h, read-out: Cytotoxicity IC50 value, A375.S2 cell line
Procedure: as §1, §2

PDL Fibroblasts = test: SRB cytotoxicity on normal periodontal ligament fibroblasts, selective cytotoxicity; assay type: cell-based, Human; details: for IC50: Homo sapiens, Fibroblast, normal fibroblasts, SRB, 72 h, mean ± SD; for Selectivity index SI (K562): IC50 on PDL fibroblasts divided by IC50 on K562; for Selectivity index SI (HELA): IC50 on PDL fibroblasts divided by IC50 on HELA; for Selectivity index SI (A375.S2): IC50 on PDL fibroblasts divided by IC50 on A375.S2
Procedure: as §2

A549 cell line = test: SRB cytotoxicity assay, A549 lung cancer cell line; details: Homo sapiens, A549, 72 h, read-out: Cytotoxicity IC50 value, A549 cell line
Procedure: as §1, §2

MCF7 cell line = test: SRB cytotoxicity assay, MCF7 breast cancer cell line; details: Homo sapiens, MCF7, 72 h, read-out: Cytotoxicity IC50 value, MCF7 cell line
Procedure: as §1, §2

[2] = read-out: Cytotoxicity IC50 value, K562 cell line, SRB, 72 h, 0.1-200 μg/mL range, mean ± SD, value in brackets
[3] = read-out: Cytotoxicity IC50 value, K562 cell line, SRB, 72 h, 0.1-200 μg/mL range, mean ± SD, NI = lack of cytotoxicity in range
[4] = read-out: Cytotoxicity IC50 value, HELA cell line, SRB, 72 h, 0.1-200 μg/mL range, mean ± SD, value in brackets
[5] = read-out: Cytotoxicity IC50 value, HELA cell line, SRB, 72 h, 0.1-200 μg/mL range, mean ± SD, NI = lack of cytotoxicity in range
[6] = 0.1-200 μg/mL range, NI = lack of cytotoxicity in range

SMILES	Antibacterial activity (in words) ([1]; esters vs free acid, Gram positive strain context)	MIC ([1]; Staphylococcus aureus, ATCC6538, Gram positive, ATCC 6538) [µM]	IC50 (K562 cell line; [2]) [µg/mL]	IC50 (K562 cell line; [3])	IC50 (HELA cell line; [4]) [µg/mL]	IC50 (HELA cell line; [5])	IC50 (PANC 1 cell line)	IC50 (T47D cell line)	IC50 (A375.S2 cell line)	IC50 (PDL Fibroblasts; [6])	IC50 (PDL Fibroblasts; value in brackets) [µg/mL]	Selectivity index SI (K562) (PDL Fibroblasts)	IC50 (A549 cell line)	IC50 (MCF7 cell line)	Selectivity index SI (HELA) (PDL Fibroblasts)	Selectivity index SI (A375.S2) (PDL Fibroblasts)	Selectivity index SI (PANC 1) (PDL Fibroblasts; IC50 on PDL fibroblasts divided by IC50 on PANC 1)
CCOC(=O)c1cn(C2CC2)c2c([N+](=O)[O-])c(Nc3ccccc3OC)c(F)cc2c1=O [2A]	lacked antibacterial activity	–	–	–	–	–	–	–	–	–	–	–	–	–	–	–	–
O=C(O)c1cn(C2CC2)c2cc(N3CCNCC3)c(F)cc2c1=O [ciprofloxacin, reference compound]	–	1.12 (≈ 0.371 µg/mL)	–	–	–	–	–	–	–	–	–	–	–	–	–	–	–
CCn1cc(C(=O)O)c(=O)c2cc(F)c(Nc3cccc(OC)c3)c(N)c21 [12b, 8-amino-1-ethyl-6-fluoro-7-(3-methoxy-phenylamino)-4-oxo-1,4-dihydro-quinoline-3-carboxylic acid]	–	–	13.2	35.4 ± 3.8 µM	83.6	225 ± 34 µM	35.4 µM and 13.2 µg/mL	169 µM and 62.7 µg/mL	112 µM and 41.7 µg/mL	150 ± 6.73 µM	55.5	4.22	163 µM and 60.4 µg/mL	492 µM and 183 µg/mL	–	–	–
CCCCCCc1ccc(Nc2c(F)cc3c(=O)c(C(=O)O)cn(C4CC4)c3c2[N+](=O)[O-])cc1 [3f, 1-cyclopropyl-6-fluoro-7-(4-hexyl-phenylamino)-8-nitro-4-oxo-1,4-dihydro-quinoline-3-carboxylic acid]	–	–	30	64.1 ± 4.78 µM	3.48	7.44 ± 0.78 µM	1.67 mM and 779 µg/mL	141 µM and 66 µg/mL	63.1 µM and 29.5 µg/mL	119 ± 19.7 µM	55.7	–	63.9 µM and 29.9 µg/mL	135 µM and 63.3 µg/mL	16.01	–	–
COc1ccc(-n2nnc3c4c(cc(F)c32)c(=O)c(C(=O)O)cn4C2CC2)c(OC)c1 [5g, 9-cyclopropyl-3-(2,4-dimethoxy-phenyl)-4-fluoro-6-oxo-6,9-dihydro-3H-[1,2,3] triazolo[4,5-h]quinoline-7-carboxylic acid]	–	–	24.2	56 ± 8.04 µM	71.8	166 ± 26 µM	> 200 µg/mL	237 µM and 102 µg/mL	272 µM and 118 µg/mL	237 ± 13.5 µM	102	4.23	474 µM and 205 µg/mL	143 µM and 61.9 µg/mL	–	–	–
CCCCCCc1ccc(-n2nnc3c4c(cc(F)c32)c(=O)c(C(=O)O)cn4C2CC2)cc1 [5f, 9-cyclopropyl-4-fluoro-3-(4-hexyl-phenyl)-6-oxo-6,9-dihydro-3H-[1,2,3] triazolo[4,5-h]quinoline-7-carboxylic acid]	–	–	14.1	31.5 ± 2.92 µM	1.61	3.59 ± 0.05 µM	119 µM and 53.4 µg/mL	232 µM and 104 µg/mL	508 µM and 227 µg/mL	474 ± 33.5 µM	212	–	362 µM and 162 µg/mL	181 µM and 81.1 µg/mL	132.15	–	–
CCc1ccc(Nc2c(F)cc3c(=O)c(C(=O)O)cn(C4CC4)c3c2[N+](=O)[O-])cc1 [3d, 1-cyclopropyl-6-fluoro-7-(4-ethyl-phenylamino)-8-nitro-4-oxo-1,4-dihydro-quinoline-3-carboxylic acid]	–	–	–	> 200 µg/mL	–	> 200 µg/mL	> 200 µg/mL	> 200 µg/mL	372 µM and 153 µg/mL	728 ± 119 µM	300	–	> 200 µg/mL	> 200 µg/mL	–	1.95	–
CCCCCCc1ccc(Nc2c(F)cc3c(=O)c(C(=O)O)cn(C4CC4)c3c2N)cc1 [4f, 8-Amino-1-cyclopropyl-6-fluoro-7-(4-hexyl-phenylamino)-4-oxo-1,4-dihydro-quinoline-3-carboxylic acid]	–	–	30.4	69.4 ± 6.64 µM	13.4	30.7 ± 3.79 µM	110 nM and 0.05 µg/mL	308 µM and 135 µg/mL	244 µM and 107 µg/mL	352 ± 7.36 µM	154	–	204 µM and 89.5 µg/mL	300 nM and 0.13 µg/mL	–	–	3199.45
O=C(O)c1cn(C2CC2)c2c(cc(F)c3c2nnn3C2CCCCC2)c1=O [9a, 3-cyclohexyl-9-cyclopropyl-4-fluoro-6-oxo-6,9-dihydro-3H-[1,2, and 3] triazolo [4,5-h] quinoline-7-carboxylic acid]	–	–	–	> 200 µg/mL	27.6	74.8 ± 1.67 µM	162 µM and 60 µg/mL	299 µM and 110 µg/mL	215 µM and 79.6 µg/mL	252 ± 11.6 µM	93.1	–	223 µM and 82.3 µg/mL	133 µM and 49.2 µg/mL	3.36	–	–
CCn1cc(C(=O)O)c(=O)c2cc(F)c(Nc3cccc(OC)c3)c([N+](=O)[O-])c21 [11b, 1-ethyl-6-fluoro-7-(3-methoxy-phenylamino)-8-nitro-4-oxo-1,4-dihydro-quinoline-3-carboxylic acid]	–	–	23.3	58 ± 9.12 µM	79	197 ± 38.3 µM	> 200 µg/mL	> 200 µg/mL	> 200 µg/mL	> 200 µg/mL	–	–	> 200 µg/mL	> 200 µg/mL	–	–	–
Nc1c(NC2CCCCC2)c(F)cc2c(=O)c(C(=O)O)cn(C3CC3)c12 [8a, 8-amino-7-cyclohexylamino-1-cyclopropyl-6-fluoro-4-oxo-1,4-dihydro-quinoline-3-carboxylic acid]	–	–	24.4	67.9 ± 6.76 µM	45	125 ± 21.9 µM	137 µM and 49.1 µg/mL	148 µM and 53.2 µg/mL	3.69 µM and 1.33 µg/mL	49.4 ± 2.71 µM	17.8	–	44 µM and 15.8 µg/mL	> 200 µg/mL	–	12.48	–
